Reference: patent US20250345433A1, “Drug For Treating Disorders Of An Organ Or Tissue Function And Diseases Accompanied By Such Disorders, And The Method For Obtaining It” (priority 2018, published 2025)

Experiments:
[1] = test system: male Wistar rats with hemorrhagic stroke; test: Hemorrhagic stroke (intracerebral hemorrhage) model in rats; type: in vivo, rat
Experimental: In the study, male Wistar rats (180-200 g) were used. […] Drug administration was started 1 hour after the pathology simulation and then daily, not earlier than 1 hour before the behavioral tests.
This method involves the double introduction of autologous blood into the specified structure of the brain of animals. The hemorrhagic stroke simulated in this way in rats in localization corresponds to intracerebral hemorrhages that occur in humans when the lenticularity arteries rupture. The total volume of hematoma in animals corresponds to approximately 40-50 ml in terms of human body weight.

[2] = test system: children with hyperactivity; test: ADHD/hyperkinetic disorder in children vs. Piracetam (SNAP-IV, TOVA, fine motor); type: in vivo, human
From the text: Materials and methods of examination. The study included 57 children aged 6 to 9 years (40 boys and 17 girls) who attended day care centers and elementary schools of secondary schools.
• 1. The presence of clinical signs of hyperactivity that meet the criteria of ICD-10 (F 90); 2. Age-6-9 years; • 3. Intellectual indicators are not lower than the average on the Wechsler scale (more than 90 points).
Children with behavioral disorders due to other mental disorders were excluded from the study. For 2 months, the main group of children (n=30) with clinical signs of GH received monotherapy for the claimed medicament in 2 tablet 3 times a day. Children from the control group, similar to the main group by clinical signs, sex and age (n=27), were administered Piracetam in standard age doses for the same period.
The assessment of the severity of GH according to the criteria of attention disorder, hyperactivity and impulsivity in the examined children was carried out using the SNAP-IV scale (Swanson J., 1992). The psychophysiological test TOVA (The Test of Variables of Attention), allowed to assess the degree of attention disorders (omissions of significant stimuli) and impulsivity (false presses of a button), information processing speed (reaction time) in relation to standard indicators (Greenberg F M, Waldman I D, 1993). The child's fine motor skills were evaluated using tests from the battery of A. R. Luria (1973), selected by testing on these age groups with the development of criteria for scoring points Zh. M. Glozman, et al. (2006).
The results of the study. At the first stage of the study, using the SNAP-IV scale (Swanson J., 1992) in children of the main and control groups, an initial assessment of the severity of GH was carried out separately for each of the criteria (attention disorder, hyperactivity and impulsivity). Repeated similar assessment was carried out after a two-month course of therapy with the declared Drug in the main group and Piracetam therapy in the control group. The obtained indicators were compared with statistical processing (Table 28).
The computer-aided testing of TOVA (“Test of Variables of Attention”) was represented by three groups of tests, which allow judging the degree of attention disorder (missing significant stimuli), impulsivity (false pressing a button), information processing speed (reaction time). Baseline indicators of children with GH before treatment were compared with those of children of the main group (treatment with the claimed Drug) and indicators of children of the control group (Piracetam therapy) after a two-month course of treatment.

children with increase in disinhibition, excitability ([2]; 2 months) [%] | children with sleep disturbance ([2]; 2 months) [%] | number of children with increase in disinhibition, excitability ([2]; 2 months, n = 27) | number of children with sleep disturbance ([2]; 2 months, n = 27) | Compound | decrease of the area of the hemorrhagic lesion ([1]; 7th day compared with the 3rd day) [%] | total time spent in the dark compartment, passive avoidance reaction, M (QI; Q3) ([1]; 7th day of the study) | difference in motor preference indices ([1]; compared to negative test (Preparation 4)) [%] | TOVA false alarm ([2]; First half of the test, after treatment, before 15.3 ± 2.2) [%] | TOVA Omissions of significant incentives ([2]; First half of the test, after treatment, before 19.1 ± 2.4) [%] | TOVA response time ([2]; First half of the test, after treatment, before 795 ± 103) [ms] | TOVA false alarm ([2]; The second half of the test, after treatment, before 29.2 ± 3.3) [%] | TOVA Omissions of significant incentives ([2]; The second half of the test, after treatment, before 29.5 ± 3.3) [%] | TOVA response time ([2]; The second half of the test, after treatment, before 741 ± 126) [ms] | Total mark of fine motor quality ([2]; after treatment, before 2.24 ± 0.21) | SNAP-IV impulsivity ([2]; after two-month treatment, before 2.40 ± 0.28) | SNAP-IV hyperactivity ([2]; after two-month treatment, before 2.64 ± 0.29) | SNAP-IV disorder of attention ([2]; after two-month treatment, before 2.76 ± 0.31)
– | – | – | – | COCCOC(=O)C1=C(C)NC(C)=C(C(=O)OC(C)C)C1c1cccc([N+](=O)[O-])c1 (centres unmarked) [Nimodipine, nimodipine] | 16.7 | 171.00 (163.00; 175.00) s | 24.22 | – | – | – | – | – | – | – | – | – | –
11.1 | 26 | 3 | 7 | NC(=O)CN1CCCC1=O [Piracetam] | – | – | – | 12.6 ± 3.1 | 13.5 ± 1.4 | 745 ± 87 | 20.5 ± 2.9 | 16.9 ± 2.9 | 665 ± 77 | 1.62 ± 0.16 | 2.36 ± 0.20 | 2.46 ± 0.11 | 2.52 ± 0.13
